Source: a compilation of properties of binary mixtures (doi:10.1007/s10953-021-01067-6)

Test: xn = mol fraction of the nth substance listed
Conditions: 101.3 kPa

CCCCCC[NH2+]CCN.O=S(=O)([N-]S(=O)(=O)C(F)(F)F)C(F)(F)F + O
Conditions | electrical conductivity [S/m] | viscosity [mPa·s]
303.15 K, x1 = 0.401 | 0.251 | 51.4
303.15 K, x1 = 0.4387 | 0.209 | 66.6
303.15 K, x1 = 0.5021 | 0.135 | 104
303.15 K, x1 = 0.5762 | 0.066 | 117
303.15 K, x1 = 0.6827 | 0.0619 | 168
303.15 K, x1 = 0.8153 | 0.0416 | 226
303.15 K, x1 = 0.8939 | 0.0284 | 260
308.15 K, x1 = 0.401 | 0.324 | 40.1
308.15 K, x1 = 0.4387 | 0.267 | 51
308.15 K, x1 = 0.5762 | 0.0972 | 86.6
308.15 K, x1 = 0.6827 | 0.085 | 131
308.15 K, x1 = 0.8153 | 0.0537 | 160
308.15 K, x1 = 0.8939 | 0.0432 | 179
313.15 K, x1 = 0.401 | 0.396 | 31.8
313.15 K, x1 = 0.4387 | 0.328 | 39.8
313.15 K, x1 = 0.5021 | 0.221 | 59.1
313.15 K, x1 = 0.5762 | 0.138 | 65.5
313.15 K, x1 = 0.6827 | 0.11 | 97.4
313.15 K, x1 = 0.8153 | 0.0733 | 118
313.15 K, x1 = 0.8939 | 0.056 | 131
318.15 K, x1 = 0.401 | 0.485 | 25.7
318.15 K, x1 = 0.4387 | 0.409 | 31.6
318.15 K, x1 = 0.5021 | 0.278 | 45.9
318.15 K, x1 = 0.6827 | 0.144 | 74.1
318.15 K, x1 = 0.8153 | 0.0987 | 88.2
318.15 K, x1 = 0.8939 | 0.075 | 95.9
323.15 K, x1 = 0.4387 | 0.502 | 25.6
323.15 K, x1 = 0.5021 | 0.34 | 36.3
323.15 K, x1 = 0.5762 | 0.232 | 39.6
323.15 K, x1 = 0.6827 | 0.184 | 57.4
323.15 K, x1 = 0.8153 | 0.13 | 65.4
323.15 K, x1 = 0.8939 | 0.101 | 72.1
328.15 K, x1 = 0.401 | 0.71 | 17.7
328.15 K, x1 = 0.4387 | 0.603 | 20.9
328.15 K, x1 = 0.5762 | 0.288 | 31.6
328.15 K, x1 = 0.8153 | 0.166 | 50.6
328.15 K, x1 = 0.8939 | 0.13 | 55.6
333.15 K, x1 = 0.401 | 0.838 | 15
333.15 K, x1 = 0.4387 | 0.727 | 17.4
333.15 K, x1 = 0.5021 | 0.505 | 23.8
333.15 K, x1 = 0.5762 | 0.372 | 25.7
333.15 K, x1 = 0.6827 | 0.293 | 35.8
333.15 K, x1 = 0.8153 | 0.21 | 39.8
333.15 K, x1 = 0.8939 | 0.169 | 43.6
338.15 K, x1 = 0.401 | 0.973 | 12.8
338.15 K, x1 = 0.4387 | 0.858 | 14.7
338.15 K, x1 = 0.5762 | 0.441 | 21.2
338.15 K, x1 = 0.6827 | 0.359 | 29.2
338.15 K, x1 = 0.8153 | 0.263 | 31.8
338.15 K, x1 = 0.8939 | 0.203 | 36.5
343.15 K, x1 = 0.401 | 1.13 | 11.1
343.15 K, x1 = 0.4387 | 1.01 | 11.9
343.15 K, x1 = 0.5021 | 0.705 | 16.5
343.15 K, x1 = 0.5762 | 0.521 | 17.7
343.15 K, x1 = 0.8939 | 0.255 | 28.2
348.15 K, x1 = 0.4387 | 1.12 | 10.3
348.15 K, x1 = 0.5021 | 0.808 | 14
348.15 K, x1 = 0.6827 | 0.503 | 20.5
348.15 K, x1 = 0.8153 | 0.399 | 21.4
348.15 K, x1 = 0.8939 | 0.31 | 24.4
353.15 K, x1 = 0.401 | 1.47 | 8.8
353.15 K, x1 = 0.4387 | 1.34 | 9
353.15 K, x1 = 0.5021 | 0.908 | 12
353.15 K, x1 = 0.6827 | 0.601 | 16.9
353.15 K, x1 = 0.8153 | 0.37 | 17
353.15 K, x1 = 0.8939 | – | 20.7
